What was measured:
glp-4(bn2) worms = experiment: Longevity (life span) assay; settings: 50 μM in NGM, E. coli OP50, Fig 3A
Method: To test the long-term toxicity of the hit compounds, life span assays were carried out by placing sterile, young adult glp-4(bn2) worms on NGM (standard nematode growth media, defined in Materials and Methods) seeded with Escherichia coli OP50. […] Sterile worms were used to eliminate the need to transfer worms between plates during life span assays, and we elected to use glp-4(bn2) to induce sterility instead of using wild-type worms sterilized with 5-fluoro-2′-deoxyuridine (FUDR) because the interaction of the compounds could generate artifacts during the long course of life span experiments.
Worms were scored daily by prodding. […] The viability was normalized to a DMSO solvent control. […] Error bars represent standard error of the mean.
Worms were picked onto agar plates seeded with 50 µl of concentrated E. coli OP50. Compounds were added to liquid agar before pouring plates. Worms were scored every day for death by prodding with a platinum wire. Worms that escaped the plate or died on the wall of the plate were censored. Each compound was tested in at least three biological replicates, each including 50 to 70 worms.

[1] = tested on: C. elegans host defense pathway genes; experiment: nanoString expression of 115 immune- and stress-responsive genes; settings: 100 μM LK molecules, 16 h
Method: The ratio of MIC to EC was determined for each of the 69 compounds.
Analysis of the expression of 115 immune- and stress-responsive genes using nanoString technology. Download Table S1, XLSX file, 0.02 MB.
For nanoString-based (nanoString Technologies, Seattle, WA) experiments, 2,000 wild-type, young adult worms were exposed to 100 μM LK molecules or DMSO control in S Basal medium in 6-well plates for 16 h. RNA purification and gene expression analysis were performed according to nanoString guidelines. Two biological replicates were tested for each condition.

CN(C)/N=N/c1ccc(-c2cn(Cc3ccccc3)cn2)cc1 [LK38]
TD50 (time to 50% death), life span (glp-4(bn2) worms): 7.6 days
B0024.4 expression, induction [1]: 3.17 fold
C02B4.2 nhr-17 expression, induction [1]: 1.71 fold
C06B3.7 expression, induction [1]: 1.11 fold
C07G3.2 irg-1 expression, induction [1]: 2.65 fold
C12C8.1 hsp-70 expression, induction [1]: 0.53 fold
C15F1.7 sod-1 expression, induction [1]: 1.43 fold
C29F7.2 expression, induction [1]: 32.57 fold
C31A11.5 oac-6 expression, induction [1]: 9.73 fold
C32D5.12 expression, induction [1]: 3.71 fold
C32H11.1 expression, induction [1]: 18.31 fold
C32H11.3 expression, induction [1]: 11.99 fold
C34G6.4 pgp-2 expression, induction [1]: 4.68 fold
C37C3.10 expression, induction [1]: 2.39 fold
C37H5.8 hsp-6 expression, induction [1]: 1.74 fold
C49G7.5 irg-2 expression, induction [1]: 3.91 fold
F08F8.5 numr-1 expression, induction [1]: 1.76 fold
F08H9.4 expression, induction [1]: 1.05 fold
F14F9.3 expression, induction [1]: 6.65 fold
F22B5.4 expression, induction [1]: 4.88 fold
F22H10.2 expression, induction [1]: 0.89 fold
F26A3.4 expression, induction [1]: 1.16 fold
F35E8.11 cdr-1 expression, induction [1]: 136.66 fold
F35G2.4 phy-2 expression, induction [1]: 1.91 fold
F37B12.2 gcs-1 expression, induction [1]: 1.21 fold
F43E2.8 hsp-4 expression, induction [1]: 1.31 fold
F44E5.5 expression, induction [1]: 0.94 fold
F49F1.6 expression, induction [1]: 3.06 fold
F49F1.7 expression, induction [1]: 27.43 fold
F49H6.13 expression, induction [1]: 1.54 fold
F54B8.4 expression, induction [1]: 5.05 fold
F55G11.2 expression, induction [1]: 2.13 fold
F59A7.1 clec-206 expression, induction [1]: 56.72 fold
F59B10.4 expression, induction [1]: 3.99 fold
H12D21.1 nspa-1 expression, induction [1]: 0.84 fold
H23N18.1 ugt-13 expression, induction [1]: 7.19 fold
H23N18.3 ugt-8 expression, induction [1]: 35.45 fold
K05B2.4 expression, induction [1]: 25.19 fold
K08F4.7 gst-4 expression, induction [1]: 1.42 fold
K09A9.1 nipi-3 expression, induction [1]: 2.18 fold
K10D11.2 expression, induction [1]: 2.89 fold
K10G4.3 expression, induction [1]: 3.15 fold
R03D7.6 gst-5 expression, induction [1]: 21.05 fold
R08H2.1 dhs-23 expression, induction [1]: 243.00 fold
R10E8.3 expression, induction [1]: 1.97 fold
T19D12.3 expression, induction [1]: 1.91 fold
T19H12.1 ugt-9 expression, induction [1]: 8.16 fold
T21E8.1 pgp-6 expression, induction [1]: 3.69 fold
T22B7.3 expression, induction [1]: 1.08 fold
T24C4.4 expression, induction [1]: 1.30 fold
T24E12.5 expression, induction [1]: 2.60 fold
T27E4.3 hsp-16.48 expression, induction [1]: 0.91 fold
T27E4.8 hsp-16.1 expression, induction [1]: 0.90 fold
T27F6.8 expression, induction [1]: 3.28 fold
T28C12.4 expression, induction [1]: 8.72 fold
W02D9.10 expression, induction [1]: 0.89 fold
Y22D7AL.5 hsp-60 expression, induction [1]: 0.89 fold
Y38E10A.15 nspe-7 expression, induction [1]: 1.82 fold
Y46H3A.2 hsp-16.41 expression, induction [1]: 0.62 fold
Y46H3A.3 hsp-16.2 expression, induction [1]: 0.79 fold
Y56A3A.33 expression, induction [1]: 1.72 fold
Y58A7A.5 expression, induction [1]: 2.03 fold
ZC376.7 atfs-1 expression, induction [1]: 2.11 fold
ZC443.6 ugt-16 expression, induction [1]: 78.74 fold
ZK697.6 gst-21 expression, induction [1]: 47.19 fold

CCN(CC)/N=N/c1ccc(C(=O)O)cc1 [LK35]
TD50 (time to 50% death), life span (glp-4(bn2) worms): 7.7 days
B0024.4 expression, induction [1]: 0.69 fold
C02B4.2 nhr-17 expression, induction [1]: 4.68 fold
C06B3.7 expression, induction [1]: 4.95 fold
C07G3.2 irg-1 expression, induction [1]: 2.81 fold
C12C8.1 hsp-70 expression, induction [1]: 9.31 fold
C15F1.7 sod-1 expression, induction [1]: 1.69 fold
C29F7.2 expression, induction [1]: 7.54 fold
C31A11.5 oac-6 expression, induction [1]: 4.61 fold
C32D5.12 expression, induction [1]: 0.39 fold
C32H11.1 expression, induction [1]: 0.93 fold
C32H11.3 expression, induction [1]: 2.10 fold
C34G6.4 pgp-2 expression, induction [1]: 8.04 fold
C37C3.10 expression, induction [1]: 68.75 fold
C37H5.8 hsp-6 expression, induction [1]: 4.54 fold
C49G7.5 irg-2 expression, induction [1]: 14.15 fold
F08F8.5 numr-1 expression, induction [1]: 26.12 fold
F08H9.4 expression, induction [1]: 14.14 fold
F14F9.3 expression, induction [1]: 17.12 fold
F22B5.4 expression, induction [1]: 0.69 fold
F22H10.2 expression, induction [1]: 2.36 fold
F26A3.4 expression, induction [1]: 1.28 fold
F35E8.11 cdr-1 expression, induction [1]: 87.64 fold
F35G2.4 phy-2 expression, induction [1]: 1.60 fold
F37B12.2 gcs-1 expression, induction [1]: 12.12 fold
F43E2.8 hsp-4 expression, induction [1]: 31.03 fold
F44E5.5 expression, induction [1]: 8.59 fold
F49F1.6 expression, induction [1]: 2.32 fold
F49F1.7 expression, induction [1]: 2.34 fold
F49H6.13 expression, induction [1]: 18.14 fold
F54B8.4 expression, induction [1]: 4.73 fold
F55G11.2 expression, induction [1]: 2.21 fold
F59A7.1 clec-206 expression, induction [1]: 9.10 fold
F59B10.4 expression, induction [1]: 4.48 fold
H12D21.1 nspa-1 expression, induction [1]: 36.00 fold
H23N18.1 ugt-13 expression, induction [1]: 10.66 fold
H23N18.3 ugt-8 expression, induction [1]: 9.55 fold
K05B2.4 expression, induction [1]: 14.78 fold
K08F4.7 gst-4 expression, induction [1]: 12.53 fold
K09A9.1 nipi-3 expression, induction [1]: 4.14 fold
K10D11.2 expression, induction [1]: 11.43 fold
K10G4.3 expression, induction [1]: 5.63 fold
R03D7.6 gst-5 expression, induction [1]: 144.12 fold
R08H2.1 dhs-23 expression, induction [1]: 121.17 fold
R10E8.3 expression, induction [1]: 5.61 fold
T19D12.3 expression, induction [1]: 88.57 fold
T19H12.1 ugt-9 expression, induction [1]: 6.78 fold
T21E8.1 pgp-6 expression, induction [1]: 2.39 fold
T22B7.3 expression, induction [1]: 7.07 fold
T24C4.4 expression, induction [1]: 4.80 fold
T24E12.5 expression, induction [1]: 34.94 fold
T27E4.3 hsp-16.48 expression, induction [1]: 10.63 fold
T27E4.8 hsp-16.1 expression, induction [1]: 10.52 fold
T27F6.8 expression, induction [1]: 3.60 fold
T28C12.4 expression, induction [1]: 9.37 fold
W02D9.10 expression, induction [1]: 7.18 fold
Y22D7AL.5 hsp-60 expression, induction [1]: 2.52 fold
Y38E10A.15 nspe-7 expression, induction [1]: 3.39 fold
Y46H3A.2 hsp-16.41 expression, induction [1]: 6.06 fold
Y46H3A.3 hsp-16.2 expression, induction [1]: 6.32 fold
Y56A3A.33 expression, induction [1]: 3.94 fold
Y58A7A.5 expression, induction [1]: 9.18 fold
ZC376.7 atfs-1 expression, induction [1]: 3.43 fold
ZC443.6 ugt-16 expression, induction [1]: 25.67 fold
ZK697.6 gst-21 expression, induction [1]: 2.35 fold
